# Reference: PubChem BioAssay AID1963979 (Molecular Pharmacology Branch, DTP, NCI, 2024)
# Tested on: 361931-004-R-J1-PDC multicell spheroid viability
# Experiment: Anticancer human tumor 361931-004-R-J1-PDC patient-derived colon adenocarcinoma cell line growth inhibition [PI3K]
# Details: for viability, T/C: stronger effect = lower value
# Outline: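 Spheroid viability read-out. Co-cultures contained the tumor line plus HUVEC and human MSCs. Each agent was paired with a PI3K inhibitor (inavolisib, alpelisib, duvelisib, copanlisib) across half-log dilutions starting at clinical Cmax, or at 10 microM when Cmax was unknown.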
# 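Also: spheroids exposed to agents for seven days before readout.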
smiles,measurement,setting,value
CC(C)n1nc(-c2ccc3oc(N)nc3c2)c2c(N)ncnc21 + COc1c(OCCCN2CCOCC2)ccc2c3n(c(=NC(=O)c4cnc(N)nc4)nc12)CCN3,IC50,"curve of first compound, second compound 0.00316 µM",> 100 nM
same,IC50,"curve of first compound, second compound 0.01 µM",> 100 nM
same,IC50,"curve of first compound, second compound 0.0316 µM",78.3 nM
same,IC50,"curve of first compound, second compound 0.1 µM",51.8 nM
same,IC50,"curve of first compound, second compound 0.316 µM",4.51 nM
same,IC50,"curve of first compound, second compound 1 µM",< 0.316 nM
same,"viability, T/C","second compound 0.00316 µM, first compound 0.000316 µM",99.9%
same,"viability, T/C","second compound 0.00316 µM, first compound 0.001 µM",108%
same,"viability, T/C","second compound 0.00316 µM, first compound 0.00316 µM",101%
same,"viability, T/C","second compound 0.00316 µM, first compound 0.01 µM",106%
same,"viability, T/C","second compound 0.00316 µM, first compound 0.0316 µM",108%
same,"viability, T/C","second compound 0.00316 µM, first compound 0.1 µM",77.5%
same,"viability, T/C","second compound 0.01 µM, first compound 0.000316 µM",106%
same,"viability, T/C","second compound 0.01 µM, first compound 0.001 µM",102%
same,"viability, T/C","second compound 0.01 µM, first compound 0.00316 µM",99.3%
same,"viability, T/C","second compound 0.01 µM, first compound 0.01 µM",100%
same,"viability, T/C","second compound 0.01 µM, first compound 0.0316 µM",99.2%
same,"viability, T/C","second compound 0.01 µM, first compound 0.1 µM",57.6%
same,"viability, T/C","second compound 0.0316 µM, first compound 0.000316 µM",94.1%
same,"viability, T/C","second compound 0.0316 µM, first compound 0.001 µM",98.7%
same,"viability, T/C","second compound 0.0316 µM, first compound 0.00316 µM",89.2%
same,"viability, T/C","second compound 0.0316 µM, first compound 0.01 µM",94.2%
same,"viability, T/C","second compound 0.0316 µM, first compound 0.0316 µM",85.6%
same,"viability, T/C","second compound 0.0316 µM, first compound 0.1 µM",40.4%
same,"viability, T/C","second compound 0.1 µM, first compound 0.000316 µM",80.8%
same,"viability, T/C","second compound 0.1 µM, first compound 0.001 µM",85.5%
same,"viability, T/C","second compound 0.1 µM, first compound 0.00316 µM",79%
same,"viability, T/C","second compound 0.1 µM, first compound 0.01 µM",72.8%
same,"viability, T/C","second compound 0.1 µM, first compound 0.0316 µM",62.9%
same,"viability, T/C","second compound 0.1 µM, first compound 0.1 µM",34.1%
same,"viability, T/C","second compound 0.316 µM, first compound 0.000316 µM",64.7%
same,"viability, T/C","second compound 0.316 µM, first compound 0.001 µM",56.3%
same,"viability, T/C","second compound 0.316 µM, first compound 0.00316 µM",54.2%
same,"viability, T/C","second compound 0.316 µM, first compound 0.01 µM",43.9%
same,"viability, T/C","second compound 0.316 µM, first compound 0.0316 µM",35.5%
same,"viability, T/C","second compound 0.316 µM, first compound 0.1 µM",22.4%
same,"viability, T/C","second compound 1 µM, first compound 0.000316 µM",20.8%
same,"viability, T/C","second compound 1 µM, first compound 0.001 µM",20.7%
same,"viability, T/C","second compound 1 µM, first compound 0.00316 µM",22.3%
same,"viability, T/C","second compound 1 µM, first compound 0.01 µM",20.9%
same,"viability, T/C","second compound 1 µM, first compound 0.0316 µM",20.2%
same,"viability, T/C","second compound 1 µM, first compound 0.1 µM",10.6%
CC(Cn1ccc(-c2ccc(C#N)c(Cl)c2)n1)NC(=O)c1cc(C(C)O)[nH]n1 (centres undefined),"viability, T/C",compound 0.0316 µM,104% [middle of 4 runs]
same,"viability, T/C",compound 0.1 µM,97.2% [middle of 4 runs]
same,"viability, T/C",compound 0.316 µM,105% [middle of 4 runs]
same,"viability, T/C",compound 1 µM,104% [middle of 4 runs]
same,"viability, T/C",compound 3.16 µM,102% [middle of 4 runs]
same,"viability, T/C",compound 10 µM,106% [middle of 4 runs]
same,IC50,curve of compound,> 10000 nM
